{
  "source": "patent US5470877A",
  "about": "“Uses of perillic acid methyl ester” (Wisconsin Alumni Research Foundation, priority 1994, dated 1995)",
  "key": {"human cancer cell lines": {"test_system": "human cancer cell lines", "test": "Growth of human cancer cell lines (NCI Developmental Therapeutics Program, FIG. 5)", "format": "cell-based", "conditions": "various concentrations", "description": "Various concentrations of perillyl alcohol caused the regression of a number of human cancer cell lines. FIG. 5 is a set of diagrams showing the effects of perillyl alcohol on different cancer cell lines. These experiments were conducted by the National Cancer Institute Developmental Therapeutics Program."}, "[1]": {"test_system": "DMBA-induced rat mammary carcinomas", "test": "Regression of DMBA-induced mammary carcinomas, pair-feeding study", "format": "in vivo, Wistar-Furth rat", "conditions": "for Time to Regress (wks): primary carcinoma, footnote: Kaplan-Meier estimate of time when 25% regressed", "description": "We used Wistar-Furth female rats for in vivo studies. Wistar-Furth female rats were obtained from Harlan Sprague-Dawley, Inc., (Madison, Wis.). All rats, arriving at 43-48 days of age, were housed at four rats per cage in wire-bottom metal cages and all were maintained with a light/dark cycle of 12 hours. Rats were provided Teklad Lab blox chow and acidified water ad libitum.\nAfter one week of acclimation, the carcinogen DMBA was administered to the rats, which were 50-55 days old at this point. The DMBA was dissolved in a stock solution of 20 mg DMBA/ml sesame oil, heated and allowed to cool to room temperature before administration. DMBA (Eastman Kodak, Rochester, N.Y.) was given as a single gastric intubation of 50 mg DMBA/kg rat body weight.\nIn the pair-feeding study, a group of 70 mammals was treated with DMBA. Beginning four weeks post carcinogen administration, mammals were weighed and palpated weekly. Upon palpation of the first mammary carcinoma (diameter≥3 mm), mammals were randomly assigned to control or 2.5% (w/w) perillyl alcohol diet and pair-fed.\nPerillyl alcohol (>96% pure by GC analysis, Aldrich, Milwaukee, Wis.) and Teklad 4% mouse/rat diet meal were thoroughly mixed and stored at -20° C. Fresh diets were made every 7-10 days. All mammals were provided fresh diet daily to minimize evaporation of the monoterpenes. For pair-feeding, the quantity of diet consumed by the monoterpene-fed mammals was measured every 24 hours and the assigned partner was pair-fed accordingly.\nIn the pair-feeding study, all palpable mammary carcinomas were classified as either \"primary\" tumors (i.e, the first tumor(s) palpated with a minimum diameter of 3 mm) or \"secondary\" tumors (i.e. a palpable tumor arising after initial diet assignment). At diet assignment, some mammals had more than one primary tumor. All carcinogen-exposed mammals not bearing a first palpable tumor by week 15 post-carcinogen were removed from the experiment. Complete regression of a tumor was defined as non-palpability for a minimum of three consecutive weeks. All mammals in the pair-feeding study were followed for a minimum of 10 weeks post-diet assignment for tumor growth or regression at primary tumor sites and all other mammary glands. The rats were necropsied if moribund. Complete necropsies were performed on all rats at the termination of the study. Greater than 95% of tumors remaining at the autopsy date were diagnosed as mammary carcinomas based on gross and histopathological criteria."}, "[2]": {"test": "Acute oral toxicity in rats", "format": "in vivo, Wistar-Furth rat", "conditions": "1:1 sesame oil", "description": "When POH was given in an acute manner (a single oral dose, 1:1 mix with sesame oil, for 5 days), the following was observed: After 300 mg total POH dose, 2 out of 5 rats died within 24 hours. After a 200 mg total POH dose, 2 out of 5 rats died within 24 hours. After a 100 mg total POH dose, 5 out of 5 rats tolerated 5 days with weight loss."}, "[3]": {"test": "Plasma metabolite identification and quantitation in rats", "format": "in vivo, Wistar-Furth rat", "conditions": "for DHPA (% total) / DHPAME (% total) / LIM/POH (% total) / PA (% total) / PAME (% total) / mM LIM/POH: plasma", "description": "Control animals received oil alone. At the chosen time points, rats were anesthetized with ether and blood was collected into heparinized tubes (Heparin (Sigma, Grade II), at 20 mg/ml in 0.9% saline). Plasma was removed following centrifugation and stored at -20° C.\nFor quantitation of chronic plasma metabolite levels of perillyl alcohol, female WF rats were housed individually and fed fresh diet daily. The afternoon before blood collection, all rats were given approximately 20 grams of the appropriate diet and allowed to eat ad. libitum for 18 hours. Food consumption data was determined the next morning and the rats were bled within 2 hours following food removal.\nBriefly, 5 μl of a 10 mM solution of perillaldehyde was added to 50 μl plasma as an internal standard for quantitation. The plasma was mixed with an equal volume of n-butanol:acetonitrile (1:1, v/v), after which another volume of saturated potassium phosphate was added. After vortexing, the samples were centrifuged and the organic layer removed from the top.\nPlasma extracts were analyzed using a Hewlett-Packard 5891 gas chromatograph equipped with a flame-ionization detector or a Hewlett-Packard 5890 chromatograph equipped with a 5971A mass-selective detector, both with 30 m Supelco SPB-5 columns. The temperature program was 90° C. for 4 minutes, increasing by 10° C./minute, followed by 15 minutes at 275° C. The split ratio was 1:10 and the linear velocity was 1.1 ml/minute. Standard curves were generated by adding 5 μl rat plasma. Standards were then extracted and analyzed by capillary gas chromatography. The ratio of the terpene peak area/perillaldehyde peak area versus the concentration of terpene in the sample was plotted."}, "[4]": {"test": "Chronic dietary toxicity in rats"}, "[5]": {"conditions": "10% limonene diet or 2.5% POH diet"}, "[6]": {"conditions": "chronic week 3, 10% LIM or 2% POH diet"}, "[7]": {"conditions": "chronic week 5, 10% LIM or 2% POH diet"}, "[8]": {"conditions": "chronic week 10, 10% LIM or 2% POH diet"}},
  "note": "“Also recorded” adds a separate entry of the source.",
  "data": [
    {"smiles": "C=C(C)[C@@H]1CC=C(CO)CC1", "note": "[perillyl alcohol]", "values": [
      {"measurement": "effect on human cancer cell growth", "setting": "human cancer cell lines", "result": "inhibited cancer cell growth"},
      {"measurement": "Primary carcinoma regression (%)", "setting": "[1]; [5]", "result": 81, "unit": "%"},
      {"measurement": "Secondary carcinoma regression (%)", "setting": "[1]; [5]", "result": 0, "unit": "%"},
      {"measurement": "Secondary carcinoma regression (tumors regressed / tumors)", "setting": "[1]; [5]", "result": "01/1"},
      {"measurement": "Secondary carcinomas/rat", "setting": "[1]; [5]", "result": 0.04},
      {"measurement": "development of secondary carcinomas", "setting": "[1]; after initial diet assignment", "result": "limited the development of secondary carcinomas"},
      {"measurement": "Time to Regress (wks)", "setting": "[1]", "result": 3.6, "unit": "wks"},
      {"measurement": "Time to Regress (wks)", "setting": "[1]; listed as POH", "result": "3.6 ± 0.3", "unit": "wks"},
      {"measurement": "amount of perillyl alcohol needed relative to limonene", "setting": "[1]; to achieve these regression results", "result": 25, "unit": "%"},
      {"measurement": "rats that tolerated 5 days with weight loss", "setting": "[2]; 100 mg total POH dose", "result": "5 out of 5"},
      {"measurement": "rats died within 24 hours", "setting": "[2]; 200 mg total POH dose", "result": "2 out of 5"},
      {"measurement": "rats died within 24 hours", "setting": "[2]; 300 mg total POH dose", "result": "2 out of 5"},
      {"measurement": "parent detection in plasma", "setting": "[3]; acute gavage, any time point including 30 minutes", "result": "not detected at any time point including 30 minutes post-gavage"},
      {"measurement": "major metabolite detected", "setting": "[3]; acute gavage, rat", "result": "perillic acid"},
      {"measurement": "perillic and dihydroperillic acids in plasma", "setting": "[3]; acutely administered, rat", "result": "detectable at 24 hours post-administration"},
      {"measurement": "parent compound in plasma", "setting": "[3]; chronically fed rats", "result": "Neither limonene nor perillyl alcohol was detected"},
      {"measurement": "DHPA (% total)", "setting": "[3]; acute 1 g/kg, 4 hour", "result": 5, "unit": "% total"},
      {"measurement": "DHPAME (% total)", "setting": "[3]; acute 1 g/kg, 4 hour", "result": "< 1", "unit": "% total"},
      {"measurement": "LIM/POH (% total)", "setting": "[3]; acute 1 g/kg, 4 hour", "result": 0, "unit": "% total"},
      {"measurement": "PA (% total)", "setting": "[3]; acute 1 g/kg, 4 hour", "result": 71, "unit": "% total"},
      {"measurement": "PAME (% total)", "setting": "[3]; acute 1 g/kg, 4 hour", "result": 24, "unit": "% total"},
      {"measurement": "mM LIM/POH", "setting": "[3]; acute 1 g/kg, 4 hour, mean ± SEM", "result": "0.00 ± 0.00", "unit": "mM"},
      {"measurement": "DHPA (% total)", "setting": "[3]; [6]", "result": 19, "unit": "% total"},
      {"measurement": "DHPAME (% total)", "setting": "[3]; [6]", "result": 2, "unit": "% total"},
      {"measurement": "LIM/POH (% total)", "setting": "[3]; [6]", "result": 0, "unit": "% total"},
      {"measurement": "PA (% total)", "setting": "[3]; [6]", "result": 69, "unit": "% total"},
      {"measurement": "PAME (% total)", "setting": "[3]; [6]", "result": 10, "unit": "% total"},
      {"measurement": "mM LIM/POH", "setting": "[3]; [6]", "result": 0, "unit": "mM"},
      {"measurement": "DHPA (% total)", "setting": "[3]; [7]", "result": 25, "unit": "% total"},
      {"measurement": "DHPAME (% total)", "setting": "[3]; [7]", "result": 3, "unit": "% total"},
      {"measurement": "LIM/POH (% total)", "setting": "[3]; [7]", "result": 0, "unit": "% total"},
      {"measurement": "PA (% total)", "setting": "[3]; [7]", "result": 62, "unit": "% total"},
      {"measurement": "PAME (% total)", "setting": "[3]; [7]", "result": 10, "unit": "% total"},
      {"measurement": "mM LIM/POH", "setting": "[3]; [7]", "result": 0, "unit": "mM"},
      {"measurement": "DHPA (% total)", "setting": "[3]; [8]", "result": 28, "unit": "% total"},
      {"measurement": "DHPAME (% total)", "setting": "[3]; [8]", "result": 4, "unit": "% total"},
      {"measurement": "LIM/POH (% total)", "setting": "[3]; [8]", "result": 0, "unit": "% total"},
      {"measurement": "PA (% total)", "setting": "[3]; [8]", "result": 59, "unit": "% total"},
      {"measurement": "PAME (% total)", "setting": "[3]; [8]", "result": 10, "unit": "% total"},
      {"measurement": "mM LIM/POH", "setting": "[3]; [8]", "result": 0, "unit": "mM"},
      {"measurement": "rate of conversion to metabolites", "setting": "[3]; rat", "result": "rapidly metabolized to the same metabolites as limonene; also recorded: more rapidly converted to metabolites than limonene"},
      {"measurement": "major plasma metabolites", "setting": "[3]; rat, 1 g/kg gavage, 4 hours", "result": "perillic acid and dihydroperillic acid"},
      {"measurement": "minor plasma metabolites", "setting": "[3]; rat, 1 g/kg gavage, 4 hours", "result": "minor levels of these acids' methyl esters"},
      {"measurement": "weight change", "setting": "[4]; 0.5% POH diet, chronic", "result": "very small weight loss followed by weight gain"},
      {"measurement": "weight change", "setting": "[4]; 1.0% POH diet, chronic", "result": "very small weight loss followed by weight gain"},
      {"measurement": "tolerability", "setting": "[4]; 2.0% POH diet, chronic", "result": "tolerated with weight loss followed by weight gain"},
      {"measurement": "tolerability", "setting": "[4]; 2.5% POH diet, chronic", "result": "tolerated with weight loss observed"},
      {"measurement": "death", "setting": "[4]; 3.0% POH diet, chronic", "result": "2/5"},
      {"measurement": "maximum dose tolerated (% diet)", "setting": "[4]; dietary, data not shown", "result": 2.5, "unit": "%"},
      {"measurement": "Toxicity", "setting": "[4]; perillyl alcohol-fed rats", "result": "limited to weight loss"},
      {"measurement": "body weight versus controls", "setting": "[4]; perillyl alcohol-fed, FIG. 8", "result": "did not achieve weights similar to controls"}
    ]}
  ]
}
